{"source": "patent US11931352B2", "about": "“Combination therapies for treating cancer” (UNIVERSITY OF VIRGINIA PATENT FOUNDATION, priority 2018, dated 2024)", "key": {"[1]": {"details": "relative to the methoxy compound; cited from earlier work"}, "MYC [2]": {"system": "MYC", "test": "MYC transcript levels by qRT-PCR in ME-1 cells", "format": "cell-based, human", "details": "for MYC transcript and protein levels: single agent treatment of ME-1 cells", "procedure": "(§1) Quantitative RT-PCR Analysis. mRNA was prepared with a PureLink® RNA Mini Kit (Life Technologies) and cDNA synthesis was performed with a SuperScript III kit (Life Technologies), per the manufacturers' instructions. Quantitative PCR analysis was conducted on an Applied Biosystems StepOnePlus System with Power SYBR® Green PCR Master Mix (Applied Biosystems). Expression levels were determined with the ΔCt method and normalized to ([…] and/or GAPDH. Sequences of primers are provided in the Key Resource Table."}, "[3]": {"system": "CBFβ-SMMHC-expressing (Nras/CM) leukemia cells", "test": "Leukemia transplantation study in mice (leukemia latency)", "format": "in vivo, mouse", "details": "i.p. from day 5; AI-10-49 200 mg/kg/day for 10 days, JQ1 50 mg/kg/day for 21 days", "procedure": "Leukemia transplantation studies in mice. […] AI-10-49 was administered at 200 mg/kg/day from day 5 to day 14. […] Mice were sacrificed after visible characteristics of AML, including reduced motility and grooming activity, hunched back, and pale paws (anemia). Leukemic cells were extracted from spleen and analyzed at time of euthanasia as previously described (Kuo et al., 2006).\nStatistical Analysis. Analysis was performed using R, a system for statistical computation and graphics (Ihaka and Gentleman, 1996). For mouse leukemia survival analysis, the leukemia latency and P-values were estimated using Survival package in R. P-value between groups was calculated using log-rank test. Relative cell viability, measured as the proportion of viable cells, was first arcsine-transformed to homogenize the variance. […] One-way ANOVA was performed followed by predetermined contrasts for FIGS. 2A, 2B, 2C, 2D, 2E, 4D and 7C. Two-way ANOVA was performed followed by Tukey's honest significance test for FIG. 3C. To compare the response curves (FIGS. 3A & 3D), an indicator variable was created to distinguish the two-drug treatment and one of the single-drug treatments. Two-way ANOVA was performed to compare a single-drug treatment and the two-drug treatment."}, "ME-1 cells [4]": {"system": "ME-1 cells", "test": "Cell viability (MTT) dose response and synergy analysis in ME-1 cells", "format": "cell-based, human", "details": "ME-1 cells treated 72 hr, MTT assay", "protocol": "Cell Viability Assay. Cell viability was estimated using the MTT kit, CellTiter 96® AQueous One Solution (Promega, PA). 20,000 cells/well were seeded in triplicate into 96-well plates. After 24-72 hrs, 20 μl of MTT reagent was added to wells containing cells or medium (blank), and absorption at 490 nm was measured using SpectraMax M5 plate reader (Molecular Devices).\nThe IC50 was estimated using the drc package in R with lower bound set to 0 (Ritz et al., 2015). CIs were calculated using the formula a/A+b/B. Synergisms, additive effect and antagonism of combine treatment assays are defined as CI<1, CI=1 and CI>1 respectively, utilizing the Chou-Talalay Method (Chou, 2010)."}, "ME-1 cells [5]": {"system": "ME-1 cells", "test": "RNA-sequencing expression analysis of AI-10-49 treated ME-1 cells", "format": "cell-based, human", "details": "AI-10-49 1 μM, 6 hrs", "procedure": "RNA Sequencing. The RNA for RNA-sequencing was prepared with a PureLink® RNA Mini Kit. RNA concentration was quantified with a NanoDrop spectrophotometer (Thermo Scientific). RNA integrity was evaluated with a 2100 Bioanalyzer with an RNA 6000 kit (Agilent Technologies). Libraries were prepared with a TruSeq RNA library preparation kit (Illumina). Libraries were quantified by qPCR, normalized and pooled before sequencing with paired-end 90-bp reads on an Illumina HiSeq2000 in triplicate.\nRNA-seq data analysis. Raw reads from RNA-seq experiment were assessed for their quality using fastqc, followed by alignment to the reference human genome (hg19) using tophat v 2.0.9, bowtie2/2.1.0 (Trapnell et al., 2009) with the default setting except the following parameters: -b2-very-sensitive-mate-inner-dist 160-mate-std-dev 80-no-coverage-search-transcriptome-index=hg19_knownGene_transcriptome_data. Differential gene expression analysis was performed by cufflinks v 2.2.0 (Trapnell et al., 2012)."}, "[6]": {"system": "non-inv(16) AML cells (U937, K562, Jurkat, Kasumi-1 and THP-1)", "test": "MYC transcript levels in non-inv(16) AML cell lines", "format": "cell-based", "details": "1 μM AI-10-49, 6 hrs", "procedure": "as §1"}, "MYC [7]": {"system": "MYC", "test": "MYC protein levels by immunoblot in ME-1 cells", "format": "cell-based, human", "details": "0.1 μM and greater concentrations, 6 hrs", "procedure": "Immunoblotting. ME-1 cells were lysed in modified RIPA buffer (50 mM Tris pH7.5, 150 mM NaCl, 1% NP40, 0.25% sodium deoxycholate and 1 mM EDTA) with phosphatase inhibitor (Sigma) and protease inhibitors (Millipore) for 15 min in ice followed by centrifugation. Nuclear and cytoplasmic fractions were isolated using Subcellular Protein Fractionation Kit (Thermo Fisher Scientific) according to the manufacturer's instructions. Protein concentrations were determined with the Biorad Protein Assay (Biorad). Proteins were separated on precast 8-12% Mini Protean TGX gels at 60-80 V using the Mini Protean electrophoresis system and were blotted onto PVDF membrane at 100V for 90 min in a Mini Trans-Blot Cell. All antibodies were used as recommended by the manufacturer and mentioned in Key Resource Table. Relative band intensities were quantified using ImageJ software."}, "[8]": {"system": "lineage negative mouse Cbfb+/MYH11 leukemic cells", "test": "MYC expression in mouse Cbfb+/MYH11 leukemic cells", "format": "cell-based", "details": "5 μM AI-10-49, 24 hrs", "procedure": "(§2) Murine bone marrow cells were isolated by crushing femur and tibia of the hind legs of mice. Wild type mouse bone marrow cells were cultured in StemSpan Serum-Free Expansion Medium (SFEM, Stemcell Technologies), 100 U/ml Penicillin and […] Streptomycin (Life Technologies) supplemented with 6 ng/ml murine recombinant IL3, 10 ng/ml murine recombinant IL6, and 50 ng/ml murine recombinant SCF. Cbfb^+/MYH11 and Nras^+/G120 leukemic bone marrow and spleen cells were cultured in StemSpan Serum-Free Expansion Medium (SFEM, Stemcell Technologies), 100 U/ml Penicillin and […] Streptomycin (Life Technologies) supplemented with 10 ng/ml murine recombinant IL3, and 50 ng/ml murine recombinant SCF.\nas §1"}, "[9]": {"system": "human primary inv(16) leukemic CD34+ cells", "test": "MYC expression in human primary inv(16) AML cells", "format": "cell-based", "details": "5 μM AI-10-49, 24 hrs", "excerpt": "(§3) Primary Hematopoietic Cell Cultures. Human cord blood samples were collected from the UMASS Memorial Medical Center, and CD34^+ cells were isolated using the CD34 Microbead kit (Miltenyi Biotec). The use of the cord blood samples for research purposes was approved by the Ethics Committee of the University of Massachusetts Medical School. Human AML samples were received from Martin Peter Carroll (University of Pennsylvania) and Carsten Mueller-Tidow (University of Heidelberg, Germany). Hematopoietic CD34^+ cells were isolated from human AML bone marrow samples using the CD34 Microbead kit (Miltenyi Biotec). All patients gave written consent for use of their samples. […]\nas §1"}, "[10]": {"system": "wild type lineage negative mouse bone marrow cells", "test": "MYC expression in normal mouse bone marrow cells", "format": "cell-based", "details": "5 μM AI-10-49, 24 hrs", "procedure": "as §2, §1"}, "[11]": {"system": "human cord blood CD34+ cells", "test": "MYC expression in normal human CD34+ hematopoietic cells", "format": "cell-based", "details": "5 μM AI-10-49, 24 hrs", "excerpt": "as §3, §1"}, "H3K27ac": {"system": "H3K27ac", "test": "ChIP-seq for H3K27ac in ME-1 cells", "format": "cell-based, human", "details": "AI-10-49 1 μM, 6 hrs; DMSO 31,102", "procedure": "(§4) Chromatin Immunoprecipitation (ChIP). ME-1 cells were treated with DMSO or AI-10-49 (1 μM) for six hrs. Cross-linking of proteins to DNA was accomplished by the addition of 1% formaldehyde for 10 min to cultured cells at room temperature. After neutralization with glycine, cells were lysed in lysis buffer with protease inhibitors and samples were sonicated to an average DNA length of 200-400 bp with a bioruptor (Diagenode). After sonication, the chromatin was immunoprecipitated with 10 μg of antibody of interest at 4° C. overnight. Antibody bound complexes were isolated with Dynabeads (Life Technologies). DNA was purified using phenol-chloroform isoamyl-alcohol method. Immunoprecipitated DNA was analyzed by sequencing (explained below) or qPCR on a StepOnePlus System (Applied Biosystems) with Power SYBR® Green PCR Master Mix and calculated as % of input.\n(§5) Chromatin immunoprecipitation followed by sequencing (ChIP-seq). DNA concentration was quantified with a NanoDrop spectrophotometer (Thermo Scientific). DNA integrity was evaluated with a 2100 Bioanalyzer (Agilent Technologies). […] Libraries were quantified by qPCR, normalized and pooled before sequencing with single-end 50-bp reads on an Illumina HiSeq4000).\n(§6) ChIP-seq data analysis. ChIP-seq reads were aligned to the human genome (hg19) with Bowtie2 v 2.1.0 (Langmead and Salzberg, 2012) with the standard default settings. […]"}, "RUNX1 [12]": {"system": "RUNX1", "test": "ChIP-seq for RUNX1 in ME-1 cells", "format": "cell-based, human", "details": "AI-10-49 1 μM, 6 hrs", "procedure": "as §4, §5, §6"}, "RUNX1 [13]": {"system": "RUNX1", "test": "ChIP-qPCR for RUNX1 at MYC enhancers in ME-1 cells", "format": "cell-based, human", "procedure": "as §4, with “ME-1 cells were treated with DMSO or AI-10-49 (1 μM) for six hrs.” left out"}, "RING1B": {"system": "RING1B", "test": "Time-course ChIP-qPCR for RING1B at E3 in ME-1 cells", "format": "cell-based, human", "details": "by 5 hr of AI-10-49 treatment", "procedure": "as §4, with “ME-1 cells were treated with DMSO or AI-10-49 (1 μM) for six hrs.” left out"}, "CBFβ": {"biological_target": "T1, CBFβ (Homo sapiens, UniProt Q13951)", "T1 sequence (Q13951 1-182)": "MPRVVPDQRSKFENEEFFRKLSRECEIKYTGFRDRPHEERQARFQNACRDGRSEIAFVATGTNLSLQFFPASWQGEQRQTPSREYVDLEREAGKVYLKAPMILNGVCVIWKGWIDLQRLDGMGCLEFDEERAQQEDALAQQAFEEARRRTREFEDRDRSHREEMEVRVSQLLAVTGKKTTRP", "details": "cited from earlier work"}, "[14]": {"details": "AI-10-49 versus DMSO, ME-1 cells"}}, "data": [{"smiles": "FC(F)(F)Oc1ccc2[nH]c(-c3ccccn3)nc2c1", "note": "[A-10-47, 2-(pyridin-2-yl)-5-(trifluoromethoxy)-1H-benzo[d]imidazole]", "values": [{"measurement": "metabolic stability", "setting": "[1]", "value": "enhanced metabolic stability"}]}, {"smiles": "Cc1sc2c(c1C)C(c1ccc(Cl)cc1)=N[C@@H](CC(=O)OC(C)(C)C)c1nnc(C)n1-2", "note": "[JQ1, reference compound]", "values": [{"measurement": "MYC transcript and protein levels", "setting": "MYC [2]", "value": "readily reduced"}, {"measurement": "median latency of leukemia", "setting": "[3]", "value": 32, "unit": "days"}]}, {"smiles": "FC(F)(F)Oc1ccc2[nH]c(-c3ccc(OCCOCCOc4ccc(-c5nc6cc(OC(F)(F)F)ccc6[nH]5)nc4)cn3)nc2c1", "note": "[AI-10-49]", "values": [{"measurement": "LD50 range at 95% confidence intervals", "setting": "ME-1 cells [4]", "value": "0.398 to 0.537", "unit": "mM"}, {"measurement": "E2F1 levels repressed (RNA-seq)", "setting": "ME-1 cells [5]", "value": 3, "unit": "fold"}, {"measurement": "MYC levels repressed (RNA-seq)", "setting": "ME-1 cells [5]", "value": "over 10 fold"}, {"measurement": "repression of MYC transcript levels", "setting": "MYC [2]; 1 uM AI-10-49, 6 hrs, ME-1 cells", "value": 10, "unit": "fold"}, {"measurement": "MYC transcript and protein levels", "setting": "MYC [2]", "value": "readily reduced"}, {"measurement": "repression of MYC transcript levels", "setting": "[6]", "value": "not in non-inv(16) AML cell lines"}, {"measurement": "MYC protein levels depleted", "setting": "MYC [7]", "value": "approximately 20 fold"}, {"measurement": "MYC expression", "setting": "[8]", "value": "reduced"}, {"measurement": "MYC expression", "setting": "[9]", "value": "reduced"}, {"measurement": "MYC expression", "setting": "[10]", "value": "not affected"}, {"measurement": "MYC expression", "setting": "[11]", "value": "not affected"}, {"measurement": "median latency of leukemia", "setting": "[3]", "value": 39, "unit": "days"}, {"measurement": "H3K27ac positive peaks", "setting": "H3K27ac", "value": "24,157 peaks"}, {"measurement": "increase in RUNX1 binding to target regulatory elements", "setting": "RUNX1 [12]; versus DMSO", "value": 7, "unit": "fold"}, {"measurement": "RUNX1 binding sites", "setting": "RUNX1 [12]; DMSO 991", "value": "6,652 sites"}, {"measurement": "RUNX1 peak increase at BDME-E3", "setting": "RUNX1 [13]; [14]", "value": 8, "unit": "fold"}, {"measurement": "RUNX1 peak increase at E5", "setting": "RUNX1 [13]; [14]", "value": 1.8, "unit": "fold"}, {"measurement": "RUNX1 peak increase at ME1", "setting": "RUNX1 [13]; [14]", "value": 5, "unit": "fold"}, {"measurement": "RUNX1 peak increase at ME2", "setting": "RUNX1 [13]; [14]", "value": 3, "unit": "fold"}, {"measurement": "RUNX1 occupancy at E3", "setting": "RUNX1 [13]; time course, by 5 hr of AI-10-49 treatment", "value": 90, "unit": "%"}, {"measurement": "RING1B occupancy at E3", "setting": "RING1B", "value": 90, "unit": "%"}, {"measurement": "effect on CBFβ function", "setting": "CBFβ", "value": "minimal effect"}]}]}
